Measured values taken from patent US20040072851A1, “Medicinal compositions for treating lower uropathy” (priority 2001, published 2004).
Where a name gives a salt, the structure may show the parent alone.

Assays:
neurogenic bladder = conditions: applicant's earlier filing PCT/JP99/03343; cited from earlier work
[1] = system: patients suffering from lower urinary tract symptoms; test: Clinical test to patients suffering from lower urinary tract symptoms (twelve-week test); type: in vivo, human
Method: A clinical test was carried out under the following conditions using the patients suffering from lower urinary tract symptoms. Subjects: eighteen patients diagnosed as lower urinary tract symptoms, i.e. urinary disturbance without clear organic or neurological abnormality in lower urinary tract (15 males and 3 female, age: 57.2±14.2). Test drug and administering method: One capsule containing 0.2 mg of tamsulosin hydrochloride was orally administered once daily after breakfast for four weeks and, after that, the dose after 4 weeks was controlled in consideration of the following criterion, and the dose was orally administered once daily after breakfast. [table] Test period: twelve weeks (84 days)(4 weeks (28 days) for 8 males) Observed items: Evaluations and measurements were made for the following items before and after the administration. (1) Total Score for Subjective Symptoms Total scores for the following <1>˜<7>before and after the administration were obtained in the same way as in Test Example 1. <1>Feel of residual urine, <2>Urination within two hours, <3>Break of urinary stream, <4>Urgency, <5>Force of urinary stream, <6>Straining upon urination and <7>Frequency of urination at night. (2) QOL Index “How do you think if the present urinating state continues in future as well?” (3) Test on Functions <1>maximum urinary stream rate <2>average urinary stream rate

[2] = system: patients suffering from lower urinary tract symptoms; test: Clinical test to patients suffering from lower urinary tract symptoms (four-week test); type: in vivo, human; conditions: for Total score for subjective symptoms after the test: 0.2 mg capsule orally once daily after breakfast; for Changing Rate (%) of total score for subjective symptoms: 0.2 mg capsule orally once daily, after vs before the test
Method: A clinical test was carried out under the following conditions using the patients suffering from lower urinary tract symptoms. (cf. Chapter 1: Indexes for Evaluation of Prostatic Hypertrophy in “Guideline for Clinical Test for Urinary Disturbance” published by Iyaku Tosho Shuppan) Subjects: four patients diagnosed as lower urinary tract symptoms, i.e. urinary disturbance without clear organic or neurological abnormality in lower urinary tract (3 males and 1 female). Test drug and administering method: One capsule containing 0.2 mg of tamsulosin hydrochloride was orally administered once daily after breakfast. Test period: four weeks (28 days) Observed items: Evaluations and measurements were made for the following items before and after the administration. (1) Total Score for Subjective Symptoms Questioning was done to the patients for the following items and the total score was obtained. (2) QOL Index With regard to an index for quality of life (QOL), a questioning that “How do you think if the present urinary condition continues in future as well?” was done as a total diagnosis concerning the urinary disturbance and any of the following evaluations was collected.

[3] = Female (n = 3), after 4 week, 0.2 mg/day orally
[4] = Female (n = 3), after 12 week, 0.2 mg/day for 4 weeks, then 0.2 or 0.4 mg/day orally
[5] = Total (n = 10), after 12 week, 0.2 mg/day for 4 weeks, then 0.2 or 0.4 mg/day orally
[6] = Total (n = 18), after 4 week, 0.2 mg/day orally
[7] = male (n = 7), after 12 week, 0.2 mg/day for 4 weeks, then 0.2 or 0.4 mg/day orally
[8] = male (n = 15), after 4 week, 0.2 mg/day orally
[9] = avg. of four patients, four weeks

SMILES: CCOc1ccccc1OCCN[C@H](C)Cc1ccc(OC)c(S(N)(=O)=O)c1 [tamsulosin]
- Clinical efficacy for the therapy of neurogenic bladder (neurogenic bladder): clinically effectively for the therapy of neurogenic bladder

SMILES: CCOc1ccccc1OCCN[C@H](C)Cc1ccc(OC)c(S(N)(=O)=O)c1 [tamsulosin hydrochloride]
- Changing Amt of Average urinary stream rate [1, 3]: +2.2 ± 1.8 ml/s
- Changing Amt of Maximum urinary stream rate [1, 3]: +3.8 ± 1.9 ml/s
- Changing Amt of QOL Index [1, 3]: −1.3 ± 1.2
- Changing Rate of Total score for subjective symptoms [1, 3]: −30.5 ± 16.9%
- Changing Amt of Average urinary stream rate [1, 4]: +2.1 ± 2.8 ml/s
- Changing Amt of Maximum urinary stream rate [1, 4]: +6.2 ± 6.0 ml/s
- Changing Amt of QOL Index [1, 4]: −3.0 ± 1.7
- Changing Rate of Total score for subjective symptoms [1, 4]: −37.4 ± 26.8%
- Changing Amt of Average urinary stream rate [1, 5]: +3.8 ± 2.5 ml/s
- Changing Amt of Maximum urinary stream rate [1, 5]: +7.3 ± 4.6 ml/s
- Changing Amt of QOL Index [1, 5]: −2.9 ± 1.7
- Changing Rate of Total score for subjective symptoms [1, 5]: −44.6 ± 32.1%
- Changing Amt of Average urinary stream rate [1, 6]: +2.0 ± 3.3 ml/s
- Changing Amt of Maximum urinary stream rate [1, 6]: +3.1 ± 6.7 ml/s
- Changing Amt of QOL Index [1, 6]: −1.6 ± 1.7
- Changing Rate of Total score for subjective symptoms [1, 6]: −40.9 ± 25.2%
- effective rate (Degree of Improvement as a whole is more than "Useful") ([1]; after 12 weeks, decided by Guideline for Clinical Test for Urinary Disturbance): 70.0%
- Changing Amt of Average urinary stream rate [1, 7]: +4.6 ± 2.2 ml/s
- Changing Amt of Maximum urinary stream rate [1, 7]: +7.8 ± 4.3 ml/s
- Changing Amt of QOL Index [1, 7]: −2.9 ± 1.9
- Changing Rate of Total score for subjective symptoms [1, 7]: −47.0 ± 35.6%
- Changing Amt of Average urinary stream rate [1, 8]: +1.9 ± 3.6 ml/s
- Changing Amt of Maximum urinary stream rate [1, 8]: +2.9 ± 7.4 ml/s
- Changing Amt of QOL Index [1, 8]: −1.6 ± 1.8
- Changing Rate of Total score for subjective symptoms [1, 8]: −43.0 ± 26.5%
- Overall conclusion on efficacy (total score for subjective symptom, QOL index, test on functions) ([1]; twelve-week test): confirmed to be effective as a therapeutic agent for lower urinary tract symptoms
- Total score for subjective symptoms after the test [2, 9]: 13.3
- Changing Rate (%) of total score for subjective symptoms [2, 9]: −40.8%
- Improvement in QOL index ([2]; four patients, average, after vs before administration, four weeks): improvement of one point in average
- QOL index, mean value after the administration ([2]; four patients, 0.2 mg orally once daily, four weeks, scale 0 (quite satisfactory) to 6 (quite unsatisfactory), before administration 4.8): 3.8
- Overall conclusion on efficacy (total score for subjective symptom, QOL index) ([2]; four-week test, 0.2 mg orally once daily): confirmed to be effective as a therapeutic agent for lower urinary tract symptoms
- Total score for subjective symptoms after the test ([2]; patient four, four weeks): 13
- Changing Rate (%) of total score for subjective symptoms ([2]; patient four, four weeks): −48.0%
- Total score for subjective symptoms after the test ([2]; patient one, four weeks): 11
- Changing Rate (%) of total score for subjective symptoms ([2]; patient one, four weeks): −26.7%
- Total score for subjective symptoms after the test ([2]; patient three, four weeks): 20
- Changing Rate (%) of total score for subjective symptoms ([2]; patient three, four weeks): −23.1%
- Total score for subjective symptoms after the test ([2]; patient two, four weeks): 9
- Changing Rate (%) of total score for subjective symptoms ([2]; patient two, four weeks): −65.4%
